The values below come from patent US20160266153A1, “I[…] PREGABALIN” (Randox Laboratories Limited, priority 2015, published 2016).

Data set [1] relates to antibody RS2845 (raised against Immunogen II). In words: Competitive ELISA: HRP tracer (Tracer 1) versus pregabalin or potential cross-reactants for binding sites of polyclonal antibody RS2845. The settings on record: for % Cross-Reactivity: % CR = IC50 pregabalin/IC50 CR x 100, cross-reactants assessed at 5 μg/ml, (S) pregabalin as calibrator; for IC50 (standard concentration which produces 50% B/B0): antibody RS2845 coated at 5 μg/ml, Tracer 1, (S) enantiomer of pregabalin as calibrator. The procedure: The antibody titre is evaluated by coating a microtitre plate (Thermo Fisher Scientific NUNC, 468667) with antibody (125 μl/well) in coating buffer (10 mM Tris pH 8.5) at 37° C. for 2 hours. The plate is then washed 4 times over 10 minutes with working strength mixture of Tris-Buffered Saline and Tween 20 (TBST). 50 μl of sample/standard (pregabalin) is added to the appropriate wells in triplicate, followed by 75 μl of hapten-HRP conjugate and incubated at 25° C. for 1 hour. The plate is then washed and 125 μl of TMB (Randox Laboratories, 4380-15) added to each well and left at room temperature for 20 mins in the dark. The reaction is stopped using 125 μl of 0.2 M sulphuric acid. The absorbances are read at 450 nm with an ELISA microplate reader (BIO-TEK Instruments, Elx800) and the means calculated. Antibody sensitivity can then be determined.
IgG was extracted from serum from the immunized animal the using ammonium sulphate/caprylic acid precipitation and the purified antibody was immobilised on a 96 well ELISA plate at 5 μg/ml in 10 mM TRIS buffer, pH 8.5 overnight at 4° C. The assay was based on competition for binding sites of a polyclonal antibody between HRP tracer and pregabalin or potential cross-reactants. The plate was washed (×3) with TBST and the calibrator (pregabalin) or potential cross reactants added (50 μl per well), followed by HRP tracer (75 μl/well) to the appropriate wells. The plates were then incubated for 60 minutes at 25° C. They were then subjected to 2 quick wash cycles using TBST, followed by 4×2 minute wash cycles. 125 μL of signal 25 (TMB) was then added to each well for 20 mins at room temperature in the dark. The reaction was stopped by the addition of 125 μl of 0.2 M Sulphuric Acid per well and the plates read immediately at 450 nm. Calibration curves were generated and these were used to determine the sensitivity and specificity of the immunoassay for pregabalin and potential cross-reactants. The data was inputted to a computer program called ‘KC Junior’ (Biotek). […] This program is used to calculate the IC50 values by dividing the 0 ng/ml optical density (OD) value by 2 and obtaining the concentration value from the curve for this OD.
wherein % CR is the percentage cross-reactivity, IC50 pregabalin is the concentration of pregabalin which causes 50% displacement of signal and IC50 CR is the concentration of potential cross-reactant that causes 50% displacement of signal.
The antibody (RS2845) used to generate the data in the tables below was raised from Immunogen II (Example 9) and the HRP tracer was prepared as in Example 10 (Tracer 1).
Background: ELISA stands for enzyme-linked immunosorbent assay.

The conditions of data set [2]: in vivo; cited from earlier work.

≈ marks a conversion by molar mass, not a printed value.

Turning to `NCCc1c[nH]c2ccc(O)cc12` [Serotonin], in data set [1], the “% Cross-Reactivity” value is recorded as below 1%.

As to `COC[C@@H](NC(C)=O)C(=O)NCc1ccccc1` [Lacosamide], the “% Cross-Reactivity” value in data set [1] is given as below 1%.

For `CC1(C)O[C@@H]2[C@@H](CO[C@@]3(COS(N)(=O)=O)OC(C)(C)O[C@@H]23)O1` [Topiramate], the “% Cross-Reactivity” value in data set [1] is below 1%.

Turning to `CC(C)(C)C(O)/C=C/c1ccc2c(c1)OCO2` (centres unmarked) [Stiripentol], the “% Cross-Reactivity” value in data set [1] was below 1%.

On to `N[C@@H](CCC(=O)O)C(=O)O` [L-Glutamic Acid], for which the “% Cross-Reactivity” value in data set [1] is recorded as below 1%.

Consider `Cc1ccsc1C(=CCCN1CCC[C@@H](C(=O)O)C1)c1sccc1C` [Tiagabine], for which the “% Cross-Reactivity” value in data set [1] is below 1%.

As to `CC[C@@H](C(N)=O)N1CCCC1=O` [Levetiracetam], in data set [1], the “% Cross-Reactivity” value was below 1%.

Take `CCCC(CCC)C(=O)O` [Valproic acid]: the “% Cross-Reactivity” value in data set [1] is listed as below 1%.

In the case of `C=CC(N)CCC(=O)O` (centres unmarked) [Vigabatrin], the “% Cross-Reactivity” value in data set [1] is on record as below 1%.

For `CNC[C@H](CC(=O)O)CC(C)C` [N-methylpregabalin, N-methyl pregabalin], in data set [1], the “% Cross-Reactivity” value is on record as below 1%.

Regarding `N[C@H](CCC(=O)O)C(=O)O` [D-Glutamic Acid], in data set [1], the “% Cross-Reactivity” value is reported as below 1%.

As to `NCCCC(=O)O` [Gamma-aminobutyric acid], the “% Cross-Reactivity” value in data set [1] is given as below 1%.

Turning to `CC(C)CC(CN)CC(=O)O` (centres unmarked) [Pregabalin, 3-(aminomethyl)-5-methylhexanoic acid], in data set [1], the “% Cross-Reactivity” value is reported as 100%. Moreover, the “IC50 (standard concentration which produces 50% B/B0)” value was 0.266 ng/mL (≈ 1.67 nM) in data set [1] and “about 0.266 ng/ml” in data set [1] (listed as pregabalin). For the same compound, the B/B0 in data set [1] (pregabalin 0.02 ng/ml) is listed as 76%; in data set [1] (pregabalin 0.08 ng/ml), 52%; in data set [1] (pregabalin 0.31 ng/ml) it was 28%; in data set [1] (pregabalin 1.25 ng/ml), 14%; in data set [1] (pregabalin 5.00 ng/ml), 7%. For the same compound, in data set [2], the “Dose excreted unchanged in the urine” value is reported as “about 98%”. Besides, the Metabolism entry in data set [2] is “negligible metabolism”.

As to `NCC1(CC(=O)O)CCCCC1` [Gabapentin], in data set [1], the “% Cross-Reactivity” value is given as below 1%.

With `NC(=O)N1c2ccccc2C=Cc2ccccc21` [Carbamazepine], the “% Cross-Reactivity” value in data set [1] is below 1%.

As to `CCC(C)CC(C)N` (centres unmarked) [1,3-dimethylamylamine (DMAA), 1,3-dimethylamylamine], in data set [1], the “% Cross-Reactivity” value worked out at 2.2%.

Take `NC(=O)OCC(COC(N)=O)c1ccccc1` [Felbamate]: in data set [1], the “% Cross-Reactivity” value is below 1%.
